Measurements published in patent US20260224756A1, “Methods Of Cellular Imaging And Inorganic Nanoimaging Agents For Same” (Cornell University, priority 2023, published 2026).
Entries after “also recorded” stand apart in the source; their conditions may differ.

Assays:
Format in all cases: in vivo, mouse
[1] = test system: osteocytes; assay: Endocytosis Inhibition Experiment: Dyngo4a or MβCD pre-incubation before C'Dot injection and clearance imaging; details: for changes in uptake and retention of C'Dots into osteocytes (FIG. 17): RGD and PEG C'Dots; for number of cells visualized and quantified at the initial imaging timepoint compared to untreated control: RGD-C'Dots, 30 minute preincubation of drug
Description: C'Dot Injection and Incubation: Mice were anesthetized with 2-3% isoflurane mixed with medical grade air in an induction chamber for 3 minutes prior to injection. During injection, mice were kept under 2% isoflurane with a nose cone. A 10 μL subcutaneous injection of 10 μM C'Dots was then administered over the third metatarsal (MT3). C'Dots were incubated for 1 hour prior to MT3 isolation (n=4-5/group/sex). Mice were allowed normal cage activity during their incubation time, and were re-anesthetized immediately before MT3 isolation.
C'Dot Imaging: C'Dot fluorescent signal inside the MT3 was visualized with multiphoton microscopy (MPM) (Bergamo II, Thorlabs) as previously described (Matthews 2023). Briefly, a 20× immersion objective (XLUMPLFLN, Olympus), 1090 nm wavelength excitation, and a >647 nm longpass filter acquisition were used for Cy5 encapsulated C'Dots. Images were captured at 1024×1024 pixel density and 0.588 μm pixel resolution. For the C'Dot clearance study, a 35 μm z-stack was taken for each mouse, starting 20 μm beneath the bone surface, with 0.3 μm steps between each slice and 7 frame averaging per slice. These z-stacks were taken every 15 minutes for almost 3 hours after the initial 1 hour incubation.
C'Dot Image Analysis: Z-stacks were analyzed in ImageJ (NIH) as previously described (Matthews 2023). Briefly, a macro was created to interpolate the regions of interest across the z-stack as well as filter the images. Then 3D segmentation was run, creating objects for all cell volumes over a threshold intensity. The lower bound for threshold intensity was established as the mean plus 3× standard deviation of background fluorescence. Segmented objects were then filtered by surface area (>1000 pixels) to ensure only full cell volumes were counted, and mean intensity for each object was quantified using the 3D manager tool. Intensities were normalized to background within each z-stack.
Endocytosis Inhibition Experiment: The small molecule Dyngo4a was used as a potent Dynasore analogue to evaluate the impact of dynamin-mediated endocytosis inhibition. A pre-incubation of Dyngo4a (10 μL, 30 μM) was subcutaneously injected above the MT3 30 minutes prior to C'Dot injection and subsequent imaging. Dyngo4a was diluted from a stock solution in DMSO to the working concentration in 1×PBS. Dyngo4a was kept at […] and was defrosted prior to use. Methyl-β-cyclodextrin (MβCD) was used as a depletor of plasma membrane cholesterol to evaluate the impact of cholesterol-mediated, lipid raft-based endocytosis inhibition. A pre-incubation of MβCD (10 μL, 10 mM) was subcutaneously injected 30 minutes before C'Dot injection. MβCD was diluted from a powder in 1×PBS. MβCD was kept at 4 C and warmed to room temperature prior to use. Both drugs were tested across all groups: male and female, PEG- and RGD-C'Dots (n=4-5/group/sex).
Statistical Analyses: Clearance study analysis was done using a student's t-test, 2-way ANOVAs, and regression analyses, including non-linear (One Phase Decay) and linear. Analyses were performed in GraphPad Prism version 9.0 for Mac OS X (GraphPad Software).
METHODS: Silica core poly(ethylene glycol) shell (core-shell) nanoparticles covalently encapsulating Cy5 dye (PE G-C'Dots) were created using a modified Stober condensation in water. RGD-C'Dots were created by surface functionalizing C'Dot surface with amino acid motifs that bind to the extracellular RGD domain of integrin proteins. Skeletally mature C57BL/6J mice age 16-18 weeks were used for these studies (n=4-5/group/sex). C'Dot Injections: Under inhaled isoflurane anesthesia, PEG- or RGD-C'Dots were injected subcutaneously above the third metatarsal (MT3) in the mouse hind paw at a concentration of 10 μM (FIG. 9). C'Dots were incubated for 45 minutes with mice allowed normal cage activity. […]

[2] = test system: osteocytes; assay: Quantification of C'Dot Subcellular Localization within osteocyte cell bodies
Description: Quantification of C'Dot Subcellular Localization: Individual frames from z-stacks taken after a 45 minute C'Dot incubation were analyzed for subcellular localization within osteocytes under different study conditions. Filtering with a gaussian blur was performed prior to thresholding of signal and particle analysis to identify cellular regions of interest (ROIs). These ROIs were overlayed onto the original image. Cells with distinct subcellular localization of C'Dots were counted as a percentage of total cells. Other cells had saturated or non-distinct signal. Cells with C'Dot signal in with a rim phenotype were also quantified by-eye. Two blinded individuals quantified the images and averaged consensus data was used in the final results.
METHODS: Silica core poly(ethylene glycol) shell (core-shell) nanoparticles covalently encapsulating Cy5 dye (PE G-C'Dots) were created using a modified Stober condensation in water. RGD-C'Dots were created by surface functionalizing C'Dot surface with amino acid motifs that bind to the extracellular RGD domain of integrin proteins. Skeletally mature C57BL/6J mice age 16-18 weeks were used for these studies (n=4-5/group/sex). C'Dot Injections: Under inhaled isoflurane anesthesia, PEG- or RGD-C'Dots were injected subcutaneously above the third metatarsal (MT3) in the mouse hind paw at a concentration of 10 μM (FIG. 9). C'Dots were incubated for 45 minutes with mice allowed normal cage activity. Pre-incubation with Dyngo-4a (Abcam) or Methyl-β-cyclodextrin (Sigma Aldrich) for 30 minutes prior to C'Dot injection was used to inhibit dynamin activity or cholesterol lipid raft formation in treated groups. Imaging: After incubation, the MT3 was surgically isolated and stabilized using a metal 3-pin system in re-anesthetized mice'. […] Image Quantification: Mean intensity and cell count of the C'Dot tagged osteocytes were quantified in ImageJ (NIH) using 3D segmentation and were normalized to background intensity. Subcellular localization of C'Dots was quantified by eye from a single frame of the first z-stack of each clearance experiment. […]

[3] = test system: osteocytes; assay: Combined acute and extended C'Dot clearance from osteocytes in non-drugged and drugged groups; details: for impact on combined acute and extended C'Dot clearance (FIG. 18): male mice; for impact on combined acute and extended C'Dot clearance (FIG. 19): male mice (so in the source)
Description: Osteocyte C'Dot Endocytosis and Metabolism: C'Dots and their rapid uptake and clearance from osteocytes was used to study endocytosis in living bone tissue. In endocytosis experiments, different drugs are preincubated in the foot (injected in the same manner) prior to C'Dot application and incubation. Drugs to target different types of endocytic pathways, including non-receptor mediated endocytosis and clathrin mediated endocytosis, were used. The same clearance imaging was performed to see how the drugs impact the cellular uptake and retention of the nanoparticles over time.
Additionally, this experiment was performed again with a short, 5 minute incubation and more rapid imaging to see what the acute impacts of the drugs were on C'Dot uptake.

O=C(N/N=C/c1cc(O)c(O)cc1O)c1cc2ccccc2cc1O [Dyngo4a]
change of PEG-C'Dot clearance from untreated control ([1]; PEG-C'Dots, males and females, Dyngo4a preincubation): neither males or females having significant change | changes in uptake and retention of C'Dots into osteocytes (FIG. 17) [1]: significant changes in uptake and retention | RGD-C'Dot signal at the end of the imaging experiment ([1]; female mice, Dyngo4a preincubation): near zero by the end of the experiment | number of cells visualized and quantified at the initial imaging timepoint compared to untreated control ([1]; female mice): no statistically significant impact | RGD C'Dot signal intensity and retention compared to untreated control ([1]; male mice, Dyngo4a pre-incubation): significantly increased | RGD-C'Dot signal at the end of the imaging experiment ([1]; male mice, Dyngo4a preincubation): maintained until the end of the imaging experiment | number of cells visualized and quantified at the initial imaging timepoint compared to untreated control ([1]; male mice): significantly higher | change in cells with discrete localization of RGD C'Dot signal after drug pre-incubation ([2]; females, pre-incubation with drug): non-significant decrease; also recorded: no statistically significant impact | cells with discrete localization of RGD C'Dot signal after drug pre-incubation ([2]; males, pre-incubation with drug): 25% | impact on combined acute and extended C'Dot clearance (FIG. 18) [3]: has an impact only on the RGD C'Dots | impact on combined acute and extended C'Dot clearance (FIG. 19) [3]: does not have an impact on either C'Dot type

Methyl-β-cyclodextrin [MβCD]
changes in uptake and retention of C'Dots into osteocytes (FIG. 17) [1]: significant changes in uptake and retention | RGD C'Dot signal compared to untreated control ([1]; female group, MβCD pre-incubation): significant increase | PEG C'Dot signal compared to untreated control ([1]; male and female PEG C'Dot groups, MβCD pre-incubation): only males retained a significant increase in signal | RGD C'Dot signal compared to untreated control ([1]; male group, MβCD pre-incubation): significant increase | RGD C'Dot signal compared to untreated control ([1]; male group, MβCD pre-incubation, listed as M (3CD)): no effect | change in percentage of cells with subcellular localization after drug pre-incubation ([2]; any group): did not significantly change | impact on combined acute and extended C'Dot clearance (FIG. 18) [3]: has an impact on both C'Dot types | impact on combined acute and extended C'Dot clearance (FIG. 19) [3]: has an impact on both C'Dot types
